Source: article PMC3689638, “Cell cycle-dependent activity of the novel dual PI3K-MTORC1/2 inhibitor NVP-BGT226 in acute leukemia” (Molecular Cancer, 2013)
Where two headings read alike, the source gives them in different places. Blank lines part the entries; values can stand above or below the molecule they belong to.

Experiments:
[1] = test system: Ba/F3 FLT3 WT; test: Inhibition of proliferation (XTT), isogenic Ba/F3 model; format: cell-based, murine; conditions: Mus musculus; for IC50: BaF3; for viability at 0.01 µM: BaF3, 10 nM, read-out: Inhibition of proliferation At 10 nM (% alive); for viability at 0.1 µM: BaF3, 100 nM, read-out: Inhibition of proliferation At 100 nM (% alive)
[2] = test system: Ba/F3 Parental (w/ IL3); test: as above; format: cell-based, murine
[3] = as above; format: cell-based, murine; conditions: mouse, Ba/F3 parental cells (with IL3), Ba/F3 Parental (w/ IL3); for viability at 0.01 µM: 10 nM, read-out: Inhibition of proliferation At 10 nM (% alive); for viability at 0.1 µM: 100 nM, read-out: Inhibition of proliferation At 100 nM (% alive)
[4] = test system: native mononuclear cells derived from bone marrow donors; test: Annexin V/PI apoptosis assay, donor mononuclear cells ex vivo; format: cell-based, human; conditions: for IC50: Homo sapiens
Description: However, this observation will need prospective verification on a larger patient cohort.
(§1) Translocation of phosphatidylserine from the inner to the outer leaflet of the plasma membrane as an early indicator of apoptosis was analyzed using an Annexin V-based assay (Immunotech, Marseilles, France) and a FACScalibur® flow cytometer loaded with CellQuest® analysis software (BD, Heidelberg, Germany).

[5] = test system: Ba/F3 KIT WT; test: Induction of apoptosis, isogenic Ba/F3 model; format: cell-based, murine; conditions: for IC50: Mus musculus, BaF3
Description: (§2) FLT3 S451F cDNA cloned into a pCMVneo plasmid vector [53] was generously provided by Dr. Fröhling, University of Ulm, Germany. KIT wildtype cDNA cloned into a pJP1563 plasmid vector was obtained from the DNASU Plasmid Repository at the Biodesign Institute of the Arizona State University (ASU). Lipofection transfection into the parental Ba/F3 cell line was performed to stably express KIT wildtype or mutant FLT3 S451F by double selection for neomycin (pCMVneo plasmid), blasticidin (pJP1563 plasmid) or […] (G418; all other plasmids) resistance and IL-3-independent growth. The Ba/F3 KIT wildtype cell line was cultured using recombinant human stem cell factor (SCF/KIT Ligand, R&D, Minneapolis, MN) as a growth supplement.
as §1

[6] = test system: Ba/F3 FLT3 S451F; test: Induction of apoptosis, isogenic Ba/F3 model; format: cell-based, murine; conditions: for IC50: Mus musculus, BaF3
Description: as §2, §1

[7] = test system: HMC1.1, HMC1.2, GIST882 and GIST48 cells; test: induction of apoptosis in imatinib-resistance cell models; format: cell-based, human; conditions: HMC1.1/HMC1.2 and GIST882/GIST48; irrespective of the sensitivity profile towards TKI
Description: We tested this theory using two cell models comparing primary TK-sensitive mutations with secondary TK-insensitive mutations: The first model consists of a mast cell leukemia cell line (HMC1.1), which harbors an imatinib-sensitive KIT V560G mutation – and a derivative sister cell line (HMC1.2), which is characterized by a secondary activation loop KIT D816V mutation, rendering the cells insensitive towards imatinib. Additionally we tested the GIST solid tumor cell line GIST882 (harboring an imatinib-sensitive KIT K642E mutation) with a second cell line, which was established from a patient with relapsing GIST under imatinib therapy (GIST48). This cell line harbors a primary homozygous juxtamembrane KIT mutation (V560D) plus a secondary heterozygous imatinib-insensitive activation loop mutation (D820A).
Supplementary file 1476-4598-12-46-S3.tiff: Additional file 3: Figure S2 PI3K/MTOR inhibition in imatinib-resistance models. Dual PI3K/MTOR inhibition is effective in tyrosine kinase inhibitor-resistant cell models. […] Dose-effect plots are provided indicating sensitivity profiles of both dual PI3K/MTOR inhibitors that are independent of the sensitivity patterns for imatinib. Linear regression analyses to calculate IC50 estimates are provided for all cell lines. […]

[8] = test system: MOLM14 cells (FLT3 ITD); test: annexin V-based apoptosis assay, MOLM14; format: cell-based; conditions: Homo sapiens, MOLM-14, read-out: IC50 induction of apoptosis
Description: as §1

[9] = test system: Ba/F3 BCR/ABL1; test: Inhibition of proliferation (XTT), isogenic Ba/F3 model; format: cell-based, murine; conditions: Mus musculus; for IC50: BaF3; for viability at 0.01 µM: BaF3, 10 nM, read-out: Inhibition of proliferation At 10 nM (% alive); for viability at 0.1 µM: BaF3, 100 nM, read-out: Inhibition of proliferation At 100 nM (% alive)
[10] = test system: K562 cells (BCR-ABL1); test: annexin V-based apoptosis assay, K562; format: cell-based; conditions: Homo sapiens, read-out: IC50 induction of apoptosis
Description: as §1

[11] = test system: Ba/F3 FLT3 N841H; test: Inhibition of proliferation (XTT), isogenic Ba/F3 model; format: cell-based, murine; conditions: Mus musculus; for IC50: BaF3; for viability at 0.01 µM: BaF3, 10 nM, read-out: Inhibition of proliferation At 10 nM (% alive); for viability at 0.1 µM: BaF3, 100 nM, read-out: Inhibition of proliferation At 100 nM (% alive)
[12] = test system: Ba/F3 KIT D816V; test: as above; format: cell-based, murine; conditions: Mus musculus; for IC50: BaF3; for viability at 0.01 µM: BaF3, 10 nM, read-out: Inhibition of proliferation At 10 nM (% alive); for viability at 0.1 µM: BaF3, 100 nM, read-out: Inhibition of proliferation At 100 nM (% alive)
[13] = test system: K562 cells; test: cell cycle analysis by PI-stain flow cytometry, K562; format: cell-based, human; conditions: 72h
Description: Accumulation of cells in the G1/G0, S or G2/M phases was monitored 6, 24 and 72 hours after application of either agent.
A propidium iodide-based flow cytometry assay was assessed as described previously. In short, a propidium iodide stain assay is used to segregate cells according to the DNA content, which is graphically shown in a histogram plot (high content in G2/M, intermediate content in S-phase, low content in G1/G0 and lowest content in dead/apoptotic cells, which defines a sub-G1/G0 fraction),

[14] = test system: Ba/F3 KIT WT; test: Inhibition of proliferation (XTT), isogenic Ba/F3 model; format: cell-based, murine; conditions: Mus musculus; for IC50: BaF3; for viability at 0.01 µM: BaF3, 10 nM, read-out: Inhibition of proliferation At 10 nM (% alive); for viability at 0.1 µM: BaF3, 100 nM, read-out: Inhibition of proliferation At 100 nM (% alive)
Description: as §2

[15] = test system: native leukemia blasts; test: Annexin V/PI apoptosis assay, native leukemia blasts treated ex vivo; format: cell-based; conditions: Homo sapiens
Description: as §1

[16] = test system: Ba/F3 FLT3 D835Y; test: Inhibition of proliferation (XTT), isogenic Ba/F3 model; format: cell-based, murine; conditions: Mus musculus; for IC50: BaF3; for viability at 0.01 µM: BaF3, 10 nM, read-out: Inhibition of proliferation At 10 nM (% alive); for viability at 0.1 µM: BaF3, 100 nM, read-out: Inhibition of proliferation At 100 nM (% alive)
[17] = test system: Ba/F3 FLT3 K663Q; test: as above; format: cell-based, murine; conditions: Mus musculus; for IC50: BaF3; for viability at 0.01 µM: BaF3, 10 nM, read-out: Inhibition of proliferation At 10 nM (% alive); for viability at 0.1 µM: BaF3, 100 nM, read-out: Inhibition of proliferation At 100 nM (% alive)
[18] = test system: mononuclear cells of a bone marrow donor; test: XTT-based proliferation assay, donor mononuclear cells ex vivo
Description: Bone marrow aspirate and peripheral blood samples from consented patients with acute leukemia as well as samples from healthy blood and bone marrow donors were collected in 5000 U heparin with the approval of the ethics committee of the Medical Faculties of the University of Tübingen or the University of Ulm. Mononuclear cells were isolated by Ficoll-Hypaque density gradient fractionation. Cells were cultured in DMEM medium, supplemented with 20% fetal bovine serum (GIBCO/Invitrogen, Darmstadt, Germany or Biochrom AG, Berlin, Germany), 1% penicillin G (10,000 units/mL), and streptomycin (10,000 μg/mg) and 2 mmol/L L-glutamine.

[19] = Mus musculus, BaF3, Ba/F3 Parental (w/ IL3)
[20] = Homo sapiens, read-out: Proliferation IC50, Pt. Nr. 552 (donor), bone marrow donor, ex vivo

IC50 [1]: 40 nM
IC50 ([4]; Pt. Nr. 538 (donor)): 1780 nM
IC50 ([4]; Pt. Nr. 554 (donor)): 3810 nM
IC50 [5]: 463 nM
IC50 [6]: 125 nM
IC50 [8]: 638 nM
IC50 [9]: 183 nM
IC50 [10]: 354 nM
IC50 [11]: 89 nM
IC50 [12]: 153 nM
IC50 [14]: 6 nM
IC50 ([15]; Pt. Nr. 290, ex vivo): 4 nM
IC50 ([15]; Pt. Nr. 368, ex vivo): 149 nM
IC50 ([15]; Pt. Nr. 527, ex vivo): 12 nM
IC50 ([15]; Pt. Nr. 528, ex vivo): 12 nM
IC50 ([15]; Pt. Nr. 532, ex vivo): 25 nM
IC50 [16]: 35 nM
IC50 [17]: 277 nM
SMILES: COc1ccc(-c2ccc3ncc4c(c3c2)n(-c2ccc(N3CCNCC3)c(C(F)(F)F)c2)c(=O)n4C)cn1 [NVP-BGT226]
viability at 0.01 µM [1]: 66%
viability at 0.1 µM [1]: 27%
IC50 ([2]; Ba/F3 Parental (w/ IL3)): 828 nM
IC50 [2, 19]: ~800 nM
viability at 0.01 µM [3]: 100%
viability at 0.1 µM [3]: 86%
Induction of apoptosis At 1000 nM (% apopt.) [5]: 48%
Induction of apoptosis At 5000 nM (% apopt.) [5]: 97%
Induction of apoptosis At 1000 nM (% apopt.) [6]: 93%
Induction of apoptosis At 5000 nM (% apopt.) [6]: 99%
induction of apoptosis [7]: potently induced apoptosis
viability at 0.01 µM [9]: 73%
viability at 0.1 µM [9]: 52%
viability at 0.01 µM [11]: 110%
viability at 0.1 µM [11]: 38%
viability at 0.01 µM [12]: 110%
viability at 0.1 µM [12]: 47%
sub-G1 ([13]; 500 nM): 41%
viability at 0.01 µM [14]: 24%
viability at 0.1 µM [14]: 13%
viability at 0.01 µM [16]: 65%
viability at 0.1 µM [16]: 33%
viability at 0.01 µM [17]: 79%
viability at 0.1 µM [17]: 52%
IC50 [18, 20]: > 1000 nM
IC50 ([18]; read-out: Proliferation IC50, Pt. Nr. 552 (donor), bone marrow donor, ex vivo, listed as BFT226): 1080 nM

SMILES: Cn1c(=O)n(-c2ccc(C(C)(C)C#N)cc2)c2c3cc(-c4cnc5ccccc5c4)ccc3ncc21 [NVP-BEZ235]
IC50 [1]: 7 nM
viability at 0.01 µM [1]: 33%
viability at 0.1 µM [1]: 28%
IC50 ([2]; Ba/F3 Parental (w/ IL3)): 2400 nM
IC50 [2, 19]: ~2400 nM
viability at 0.01 µM [3]: 89%
viability at 0.1 µM [3]: 98%
Apoptosis IC50 ([4]; Pt. Nr. 538 (donor)): Not reached
Apoptosis IC50 ([4]; Pt. Nr. 554 (donor)): Not reached
Induction of apoptosis At 1000 nM (% apopt.) [5]: 32%
Induction of apoptosis At 5000 nM (% apopt.) [5]: 85%
IC50 [5]: 1400 nM
Induction of apoptosis At 1000 nM (% apopt.) [6]: 49%
Induction of apoptosis At 5000 nM (% apopt.) [6]: 70%
IC50 [6]: 741 nM
induction of apoptosis [7]: potently induced apoptosis
IC50 [8]: > 10000 nM
IC50 [9]: 131 nM
viability at 0.01 µM [9]: 58%
viability at 0.1 µM [9]: 50%
IC50 [10]: > 10000 nM
IC50 [11]: 9 nM
viability at 0.01 µM [11]: 43%
viability at 0.1 µM [11]: 47%
IC50 [12]: 8 nM
viability at 0.01 µM [12]: 40%
viability at 0.1 µM [12]: 38%
sub-G1 ([13]; 1000 nM): 13%
sub-G1 ([13]; 10 000 nM): 17%
IC50 [14]: 6 nM
viability at 0.01 µM [14]: 12%
viability at 0.1 µM [14]: 11%
IC50 ([15]; Pt. Nr. 290, ex vivo): 71 nM
IC50 ([15]; Pt. Nr. 368, ex vivo): 3180 nM
IC50 ([15]; Pt. Nr. 527, ex vivo): 6820 nM
IC50 ([15]; Pt. Nr. 528, ex vivo): 371 nM
IC50 ([15]; Pt. Nr. 532, ex vivo): 653 nM
IC50 [16]: 5 nM
viability at 0.01 µM [16]: 37%
viability at 0.1 µM [16]: 30%
IC50 [17]: 91 nM
viability at 0.01 µM [17]: 57%
viability at 0.1 µM [17]: 51%
IC50 [18, 20]: > 1000 nM
IC50 ([18]; read-out: Proliferation IC50, Pt. Nr. 552 (donor), bone marrow donor, ex vivo): 1020 nM
